In paper PMC9257445 (Journal of Pharmaceutical Analysis, 2021) one finds Kd data, which are given here for one compound.

This assay addresses T1, tumor necrosis factor receptor type 1 (TNF-R1) (Homo sapiens, UniProt P19438).
T1 sequence (P19438 30-455): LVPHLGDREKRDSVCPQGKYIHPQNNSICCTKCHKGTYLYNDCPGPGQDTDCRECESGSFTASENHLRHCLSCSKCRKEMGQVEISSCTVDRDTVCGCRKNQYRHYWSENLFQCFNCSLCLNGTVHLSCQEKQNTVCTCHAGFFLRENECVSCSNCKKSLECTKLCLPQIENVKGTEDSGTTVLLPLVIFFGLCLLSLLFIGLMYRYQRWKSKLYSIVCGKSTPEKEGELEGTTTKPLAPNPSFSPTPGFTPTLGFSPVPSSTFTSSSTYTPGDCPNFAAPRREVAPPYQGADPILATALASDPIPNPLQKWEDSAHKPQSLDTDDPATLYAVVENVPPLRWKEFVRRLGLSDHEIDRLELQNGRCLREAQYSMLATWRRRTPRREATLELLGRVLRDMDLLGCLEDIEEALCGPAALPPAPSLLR
Kind of assay: SPR. Type of assay: binding.

One may read the Kd as a measure of binding affinity in units of concentration. Read a low Kd as a tighter complex. `COc1ccc(C(C)=O)c(O)c1` [paeonol] returned a Kd of 11.8 µM.
